Laboratory results as given in US10111950B2, “Modified glycolipids and methods of making and using the same” (Vaccinex, Inc., priority 2013, dated 2018).

Experiments:
[1] = test system: iNKT hybridoma DN3A4-1.2 with human CD1d transfected HeLa cells; assay: iNKT hybridoma stimulation (IL-2 secretion) with hCD1d expressing HeLa cells; assay type: cell-based; settings: BPGC 5 to 0.01 μg/ml for 3 hrs, hybridoma 18 hours
Method: The activated natural killer cells were again calculated based on those secreting IL-2. Specifically, plate bound human CD1d transfected HeLa cells (10,000 cells in 100 μl medium) were plated in a 96 well tissue culture plate and allowed to adhere to the plates for 30 minutes at 37° C. Adherent HeLa cells were treated with varying BPGC concentrations ranging between 5 and 0.01 μg/ml in 100 μl for 3 hrs at 37° C. Glycolipid not taken up by cells was removed by washing with medium. To detect the BPGC presentation by CD1d, iNKT hybridoma DN3A4-1.2 (5000 cells in 100 μl volume) was added and the stimulation was detected by the level of IL-2 secreted in the supernatant following incubation at 37° C. for 18 hours.

plate bound mCD1d = molecular target: T1, plate bound mCD1d (Mus musculus, UniProt P11609); assay: Ligand binding to plate bound mCD1d with and without UV activation, ELISA using mAb L363; design: species or system murine
T1 construct: recombinant soluble murine CD1d (mCD1d) was diluted to 400 μg/ml in PBS pH 7.2
T1 sequence (P11609 22-305 limits assumed): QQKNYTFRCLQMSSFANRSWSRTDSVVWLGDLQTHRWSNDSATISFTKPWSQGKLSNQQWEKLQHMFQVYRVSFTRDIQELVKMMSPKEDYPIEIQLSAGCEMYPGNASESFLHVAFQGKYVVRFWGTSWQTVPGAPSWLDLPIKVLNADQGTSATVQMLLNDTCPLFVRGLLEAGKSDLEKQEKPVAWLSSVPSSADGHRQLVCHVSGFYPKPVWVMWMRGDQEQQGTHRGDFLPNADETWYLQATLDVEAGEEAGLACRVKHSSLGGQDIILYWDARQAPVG
T1 sequence (P01887 21-119 partner): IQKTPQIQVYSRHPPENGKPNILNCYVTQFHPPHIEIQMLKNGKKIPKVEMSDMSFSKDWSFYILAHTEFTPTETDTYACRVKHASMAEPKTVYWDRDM
Method: (§1) The ligand binding affinity of plate bound mCD1d was measured by ELISA using mAb L363 to detect murine CD1d/αGalCer complexes. ELISA plates were coated with mCD1d (10 μg/ml, 30 μl/well) overnight at 4° C. in PBS pH 8.2. Supernatant was then removed along with any unbound protein. Glycolipids (5 μM, 30 μl/well) were loaded and allowed to incubate overnight at 25° C. Supernatant was again removed and the complexes were washed three times with PBS to remove any unbound glycolipid. For those complexes that underwent UV activation, UV crosslinking was performed in solution (30 μl/well PBS) and at a fixed wavelength of 365 nm from a UV lamp (RAD-FREE long wave UV lamp, Schleicher & Schuell). The UV lamp was placed one inch from the sample and the sample was allowed to sit on ice for 1 hr.

[2] = test system: iNKT hybridoma DN3A4-1.2 with plate bound mCD1d; assay: Plate bound mCD1d:glycolipid complexes with and without UV activation, iNKT DN3A4-1.2 hybridoma stimulation assay (IL-2 ELISA); assay type: cell-based, murine; settings: for iNKT stimulation post-dissociation (IL-2 ELISA): after 3 days dissociation, non-crosslinked mCD1d complexes (UV state not stated for 7DW8-5)
Method: (§2) The ligand binding affinity of plate bound mCD1d was detected by iNKT DN3A4-1.2 hybridoma stimulation assay. mCD1d (10 μg/ml) was loaded with glycolipids (5 μM) overnight at 25° C. ELISA plates were coated with mCD1d:GC complexes (2.5 μg/ml, 30 μl/well) for 12-18 hours at 4° C. in PBS pH 8.2. Supernatant was then removed and the complexes were washed three times with PBS to remove any unbound glycolipid and protein. For those complexes that underwent UV activation, UV crosslinking was performed in solution (30 μl/well PBS) and at a fixed wavelength of 365 nm from a UV lamp (RAD-FREE long wave UV lamp, Schleicher & Schuell). The UV lamp was placed one inch from the sample and the sample was allowed to sit on ice for 1 hr. Supernatant was then removed and the complexes were washed three times with PBS to remove any unbound glycolipid and protein.

[3] = molecular target: T2, soluble recombinant mCD1d (Mus musculus, UniProt P11609); assay: Direct comparison of DB12-8 and 7DW8-5 complexes with soluble recombinant mCD1d, L363 ELISA; assay type: binding, murine
T2 construct: A soluble recombinant mCD1d protein (10 μg/ml) was loaded with glycolipids
T2 sequence (P11609 22-305 limits assumed): T1 sequence (P11609 22-305 limits assumed)
T2 sequence (P01887 21-119 partner): T1 sequence (P01887 21-119 partner)
Method: as §1, §2
A soluble recombinant mCD1d protein (10 μg/ml) was loaded with glycolipids (5 μM) overnight at 25° C. in PBS pH8.2 with 0.05% tyloxapol. The mCD1d:GC complexes (10 μg/ml, 30 μl/well) were coated onto the high binding ELISA plates, overnight at 4° C. UV exposure and incubation to allow dissociation over 3 days was performed as described in Examples 6 and 7.

mCD1d.CEA fusion protein = assay: Direct comparison of DB12-8 and 7DW8-5 complexes with mCD1d.CEA fusion protein, L363 ELISA; assay type: binding, murine
Method: as §1, §2
mCD1d.CEA (10 μg/ml), a recombinant mCD1d protein genetically fused with a single chain Fv antibody fragment specific for the tumor associated antigen CEA, was loaded with glycolipids (5 μM) overnight at 25° C. in PBS pH8.2 with 0.05% tyloxapol. The mCD1d.CEA:GC complexes (10 μg/ml, 30 μl/well) were coated onto wells of high binding ELISA 96 well plates overnight at 4° C. UV exposure and incubation to allow dissociation over 3 days were performed as described in Examples 6 and 7.
A scale up of the complex formation in solution was performed using a 10-fold increased concentration of protein and glycolipid and the results are shown in FIG. 9C-9D. mCD1d.CEA (100 μg/ml) was loaded with DB12-8 (50 μM respectively) overnight at 25° C. in PBS pH8.2 with 0.05% tyloxapol. DB12-8:mCD1d.CEA complexes were diluted down to 10 μg/ml and were coated onto the high binding ELISA plates (30 μl/well), overnight at 4° C. UV exposure and incubation to allow dissociation over 3 days were performed as described in Examples 6 and 7.

iNKT cells = settings: repeated stimulation; cited from earlier work
mouse CD1d = molecular target: T3, mouse CD1d (Mus musculus, UniProt P11609); assay: Tryptophan fluorescence quenching of mCD1d by glycolipid binding; settings: protein 0.1 μM, glycolipid 4 μM, 25° C., excited at λ295
T3 construct: recombinant soluble murine CD1d (mCD1d) was diluted to 400 μg/ml in PBS pH 7.2
T3 sequence (P11609 22-305 limits assumed): T1 sequence (P11609 22-305 limits assumed)
T3 sequence (P01887 21-119 partner): T1 sequence (P01887 21-119 partner)
Method: The effect of glycolipid binding to mouse CD1d was tested. Fluorescence quenching of mCD1d due to glycolipid binding was measured using a Horibo Jobin Yvon Fluoromax-3 fluorescent spectrophotometer and the data were analyzed using FluorEssence software. Protein (0.1 μM) was mixed either with glycolipid antigens (at 4 μM) or the ligand vehicle in a quartz cuvette 1 cm wide, to a final volume of 100 μl and placed in the spectrometer already set at 25° C. The samples were excited at λ295 and emission measured from […] to λ400.

[4] = test system: iNKT hybridoma DN3A4-1.2 with murine CD1d-expressing antigen presenting cells; assay: iNKT hybridoma stimulation (IL-2 secretion) with mCD1d expressing BMDCs; assay type: cell-based, mouse; settings: BMDCs from C57BL/6 mice, BPGC 5 to 0.01 μg/ml for 3 hrs, hybridoma 18 hrs
Method: The activated natural killer cells were calculated based on those secreting IL-2. Specifically, bone marrow-derived dendritic cells (BMDCs) from C57BL/6 mice (10,000 cells in 100 μl culture medium) were plated in wells of a 96 well tissue culture plate and allowed to adhere to the plates for 30 minutes at 37° C. The cultures were then exposed to varying BPGC concentrations ranging between 5 and 0.01 μg/ml in 100 μl for 3 hrs at 37° C. Glycolipids not taken up by BMDCs were removed by washing with culture medium. To detect the BPGC presentation by CD1d, iNKT hybridoma DN3A4-1.2 (5000 cells in 100 μl volume) was added and the stimulation was detected by the level of IL-2 secreted in the supernatant following 18 hrs of incubation at 37° C.

SMILES | iNKT stimulation, level of IL-2 secreted in the supernatant [1] | dissociation of CD1d:glycolipid complex after 3 days (L363 ELISA) (plate bound mCD1d; UV irradiated 365 nm 1 hr, 3 days in PBS+0.05% Triton X-100 at 25° C.) | CD1d/glycolipid complex formation detected by mAb L363 ELISA (plate bound mCD1d; plate bound mCD1d 10 μg/ml, glycolipid 5 μM) | iNKT hybridoma stimulation following UV crosslinking (IL-2 ELISA) ([2]; UV crosslinked 365 nm 1 hr) | iNKT stimulation post-dissociation (IL-2 ELISA) [2] | binding to CD1d ([2]; following UV crosslinking) | dissociation after 3 days (L363 ELISA signal) ([3]; UV exposure at 365 nm) | affinity to CD1d, complex detected by L363 ELISA ([3]; mCD1d 10 μg/ml, glycolipid 5 μM) | dissociation after 3 days (L363 ELISA signal) ([3]; non UV-crosslinked state) | reduction in OD450 after 3 days (mCD1d.CEA fusion protein; 10-fold scale up (mCD1d.CEA 100 μg/ml, DB12-8 50 μM), UV-crosslinked samples) | decrease in OD450 after 3 days incubation (mCD1d.CEA fusion protein; 10-fold scale up (mCD1d.CEA 100 μg/ml, DB12-8 50 μM), non-crosslinked complexes) [%] | dissociation after 3 days (L363 ELISA signal) (mCD1d.CEA fusion protein; UV exposure at 365 nm) | affinity to CD1d, complex detected by L363 ELISA (mCD1d.CEA fusion protein; mCD1d.CEA 10 μg/ml, glycolipid 5 μM) | L363 ELISA signal following UV-crosslinking (mCD1d.CEA fusion protein; mCD1d.CEA complex) | dissociation after 3 days (L363 ELISA signal) (mCD1d.CEA fusion protein; non UV-crosslinked state) | iNKT cell response to stimulation with free αGalCer (iNKT cells) | fluorescence quenching of mCD1d due to glycolipid binding (mouse CD1d) | iNKT stimulation, level of IL-2 secreted in the supernatant [4]
CCCCCCCCCCCCCC[C@@H](O)[C@@H](O)[C@H](COC1OC(CO)C(O)C(O)C1O)NC(=O)CCCCCCCCCCOCc1cccc(C(=O)c2ccccc2)c1 (stereo partly shown) [DB12-8] | stimulatory toward iNKT cells | no significant dissociation | highest levels of immunoreactive complex formation | stimulated iNKT hybridoma better than other glycolipids | some, albeit reduced, iNKT stimulation even after dissociation | bound efficiently to CD1d | no dissociation was observed | showed affinity to CD1d | dissociated almost completely | no detectable reduction in OD450 | ~75 | no dissociation was observed | showed affinity to CD1d | increases significantly | almost completely dissociated |  |  | 
CCCCCCCCCCCCCCCCCCCCCCCCCC(=O)N[C@@H](CO[C@H]1O[C@H](CO)[C@H](O)[C@H](O)[C@H]1O)[C@H](O)[C@H](O)CCCCCCCCCCCCCC [αGalCer, α-galactosylceramide] |  |  |  |  |  |  |  |  |  |  |  |  |  |  |  | results in iNKT cell anergy |  | 
CCCCCCCCCCCCCC[C@@H](O)[C@@H](O)[C@H](COC1OC(CO)C(O)C(O)C1O)NC(=O)CCCCCCCCOCc1cccc(C(=O)c2ccccc2)c1 (stereo partly shown) [DB12-7] |  |  |  |  | some, albeit reduced, iNKT stimulation even after dissociation |  |  |  |  |  |  |  |  |  |  |  | greatest quenching | lower but still significant IL-2 secretion
